Here are results for 17 compounds from patent US5968951A, “Benzenesulfonamide derivatives as bradykinin antagonists” (Fournier Industrie et Sante, priority 1995, dated 1999).

Structures can show the parent of a compound that is named as a salt.

The target in this test is T1, guinea-pig B2 receptor (Cavia porcellus, UniProt O70526).
T1 construct: Ileum segments are isolated from male guinea-pigs of the Dunkin-Hartley strain; tissue Iffa Credo, l'Arbresle, France (animals); host or cells: ileum membranes of male Dunkin-Hartley guinea-pigs
T1 sequence (O70526 1-372): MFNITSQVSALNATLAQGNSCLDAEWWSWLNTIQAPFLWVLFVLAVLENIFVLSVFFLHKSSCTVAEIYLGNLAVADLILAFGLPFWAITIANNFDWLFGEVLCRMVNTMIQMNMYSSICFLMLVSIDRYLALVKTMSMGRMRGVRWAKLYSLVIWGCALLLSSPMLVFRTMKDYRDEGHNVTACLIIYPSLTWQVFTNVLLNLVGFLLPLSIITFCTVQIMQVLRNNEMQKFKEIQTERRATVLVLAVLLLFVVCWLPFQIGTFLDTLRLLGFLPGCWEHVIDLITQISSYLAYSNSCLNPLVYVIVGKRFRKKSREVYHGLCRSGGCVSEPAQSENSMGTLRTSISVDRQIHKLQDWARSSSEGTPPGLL
Nature of the test: [3H]-bradykinin binding to guinea-pig ileum membranes. The settings on record: test compound 10^-6 M; [3H]-bradykinin 120 pM; 50 μg membrane protein; 90 min at 20° C.; read-out: Activity % (percentage inhibition of the binding of [3H]-bradykinin). Here is the method: We used the following pharmacological test: Ileum segments are isolated from male guinea-pigs of the Dunkin-Hartley strain (Iffa Credo, l'Arbresle, France) and ground in the following TES buffer: TES 25 mM, 1,10-phenanthroline 1 mM (pH 6.8), bacitracin 140 μg/ml, BSA 1 g/l. The membranes are then isolated by centrifugation (18,000 rpm; 20 min; 4° C.). The binding studies are carried out in the TES buffer using [^3 H]-bradykinin (120 pM) and 50 μg of membrane protein per test (final volume 500 μl) with an equilibrium time of 90 min at 20° C.

A word on the inhibition: it is the change of the read-out against control, counted positive when it falls. As to `Cc1ccc2cccc(OCc3c(Cl)ccc(S(=O)(=O)N(C)Cc4c[nH]c5ccccc45)c3Cl)c2n1` [Example 7, 2,4-Dichloro-N-methyl-N-[(indol-3-yl)methyl]-3-[(2-methylquinolin-8yl)oxymethyl]benzenesulfonamide], the inhibition at 1 µM was 97.6%.
In the case of `Cc1ccc2cccc(OCc3c(Cl)ccc(S(=O)(=O)N(C)Cc4ccc(N)cc4)c3Cl)c2n1` [Example 8, 2,4-Dichloro-N-methyl-N-[(4-aminophenyl)methyl]-3-[(2-methylquinolin-8-yl)oxymethyl]benzenesulfonamide dihydrochloride], the inhibition at 1 µM worked out at 99.5%.
With `Cc1ccc2cccc(OCc3c(Cl)ccc(S(=O)(=O)N(C)Cc4ccc(O)cc4)c3Cl)c2n1` [Example 9, 2,4-Dichloro-N-methyl-N-[(4-hydroxyphenyl)methyl]-3-[(2-methylquinolin-8-yl)oxymethyl]benzenesulfonamide] the figure was 99.5%; with `Cc1ccc2cccc(OCc3c(Cl)ccc(S(=O)(=O)N(C)Cc4cccc(C(N)=O)c4)c3Cl)c2n1` [Example 10, 2,4-Dichloro-N-methyl-N-[[3-(aminocarbonyl)phenyl]methyl]-3[(2-methylquinolin-8-yl)oxymethyl]benzenesulfonamide], 99.8%; with `CNC(=O)c1cccc(CN(C)S(=O)(=O)c2ccc(Cl)c(COc3cccc4ccc(C)nc34)c2Cl)c1` [Example 11, 2,4-Dichloro-N-methyl-N-[[3-(methylaminocarbonyl)phenyl]methyl]-3-[(2-methylquinolin-8-yl)oxymethyl]benzenesulfonamide], 100%.
With `Cc1ccc2cccc(OCc3c(Cl)ccc(S(=O)(=O)N(C)Cc4cccc(C(=O)N(C)C)c4)c3Cl)c2n1` [Example 12, 2,4-Dichloro-N-methyl-N-[[3-[(dimethylamino)carbonyl]phenyl]methyl]-3-[(2-methylquinolin-8-yl)oxymethyl]benzenesulfonamide] the figure was 96.9%; with `Cc1ccc2cccc(OCc3c(Cl)ccc(S(=O)(=O)N(C)Cc4cccc(C(=O)NCCCO)c4)c3Cl)c2n1` [Example 13, 2,4-Dichloro-N-methyl-N-[[3-[(3-hydroxypropyl)aminocarbonyl]phenyl]-methyl]-3-[(2-methylquinolin-8-yl)oxymethyl]benzenesulfonamide], 99.3%; with `Cc1ccc2cccc(OCc3c(Cl)ccc(S(=O)(=O)N(C)Cc4cccc(C(=O)NCCN(C)C)c4)c3Cl)c2n1` [Example 14, 2,4-Dichloro-N-methyl-N-[[3-[[2-(dimethylamino)ethyl]aminocarbonyl]-phenyl]-methyl]-3-[(2-methylquinolin-8-yl)oxymethyl]benzenesulfonamide], 100%.
With `Cc1ccc2cccc(OCc3c(Cl)ccc(S(=O)(=O)N(C)CCc4ccccc4)c3Cl)c2n1` [Example 15, 2,4Dichloro-N-methyl-N-(2-phenylethyl)-3-[(2-methylquinolin-8-yl)oxymethyl]benzenesulfonamide] the figure was 97.9%.
`Cc1ccc2cccc(OCc3c(Cl)ccc(S(=O)(=O)N(C)CCCCCCCN)c3Cl)c2n1` [Example 16, 2,4-Dichloro-N-methyl-N-(7-aminoheptyl)-3-[(2-methylquinolin-8-yl)oxymethyl]benzenesulfonamide bis(trifluoroacetate)]: the inhibition at 1 µM turned out to be 100%.
Then `CNC(=O)CCCCCN(C)S(=O)(=O)c1ccc(Cl)c(COc2cccc3ccc(C)nc23)c1Cl` [Example 19, 2,4-Dichloro-N-methyl-N-[6-(methylamino)-6-oxohexyl]-3-[(2-methylquinolin-8-yl)oxymethyl]benzenesulfonamide], with 99%; and `Cc1ccc2cccc(OCc3c(Cl)ccc(S(=O)(=O)N(C)CCCCCCCCO)c3Cl)c2n1` [Example 20, 2,4-Dichloro-N-methyl-N-(8-hydroxyoctyl)-3-[(2-methylquinolin-8-yl)oxymethyl]benzenesulfonamide], with 95.7%.
In the case of `Cc1ccc2cccc(OCc3c(Cl)ccc(S(=O)(=O)N(C)CCCCCCCCCCCCO)c3Cl)c2n1` [Example 21, 2,4-Dichloro-N-methyl-N-(12-hydroxydodecyl)-3-[(2-methylquinolin-8-yl)oxymethyl]benzenesulfonamide], the inhibition at 1 µM was 94.3%.
In the case of `Cc1ccc2cccc(OCc3c(Cl)ccc(S(=O)(=O)N(CCCCN)C(C)(C)C)c3Cl)c2n1` [Example 23, N-(4-Aminobutyl)-N-(1,1-dimethylethyl)-2,4-dichloro-3-[(2-methylquinolin-8-yl)oxymethyl]benzenesulfonamide], the inhibition at 1 µM is 92.8%.
Then `CC(=O)NCCCCN(C(C)(C)C)S(=O)(=O)c1ccc(Cl)c(COc2cccc3ccc(C)nc23)c1Cl` [Example 24], with 90.5%; and `Cc1ccc2cccc(OCc3c(Cl)ccc(S(=O)(=O)N(CCCCCCCO)Cc4ccccc4)c3Cl)c2n1` [Example 25, 2,4-Dichloro-N-(phenylmethyl)-N-(7-hydroxyheptyl)-3-[(2-methylquinolin-8-yl]oxymethyl]benzenesulfonamide], with 95.1%.
Then `CNC(=O)CCCCCCCN(Cc1ccccc1)S(=O)(=O)c1ccc(Cl)c(COc2cccc3ccc(C)nc23)c1Cl` [Example 28, 2,4-Dichloro-N-(phenylmethyl)-N-[8-(methylamino)-8-oxooctyl]-3-[(2-methylquinolin-8-yl)oxymethyl]benzenesulfonamide], with 98%.
